Experimental data from ChEMBL document CHEMBL3137667, “[Drug-induced liver injury; fourteenth updated edition of the bibliographic database of liver injuries and related drugs]” (Gastroenterol Clin Biol, 2004).
Where a SMILES comes first, the peptide text is derived from it. Bridges are numbered along the chain shown (N, C = ends). [ ]: non-standard residue; d: D form.

Assays:
[1] = human
[2] = human; remark: listed apart in the source
[3] = human, serum
[4] = human; remark: listed apart in the source
[5] = Times to onset, minimal and maximal, observed in the indexed observations. [column 'DELAI' in source]; conditions: human
[6] = Comments (NB not yet translated). [column 'COMMENTAIRES' in source]; conditions: human
[7] = Highest frequency of acute liver toxicity observed during clinical trials, expressed as a percentage. [column '% AIGUE' in source]; conditions: human
[8] = human, serum, 4383 h
[9] = human; remark: listed apart in the source
[10] = human; remark: listed apart in the source
[11] = human; remark: listed apart in the source
[12] = human; remark: listed apart in the source
[13] = human, serum; remark: listed apart in the source
[14] = human; remark: listed apart in the source
[15] = Highest frequency of moderate liver toxicity observed during clinical trials, expressed as a percentage. [column '% BIOL' in source]; conditions: human
[16] = human; remark: listed apart in the source
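Wherever Hepatotoxicity (association with vascular disease) is given: count of indexed literature references reporting vascular liver injury in humans, e.g. peliosis hepatitis, hepatic veno-occlusive disease or Budd-Chiari syndrome.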
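Wherever Hepatotoxicity (benign tumour) is given: value is a count of indexed literature references citing a benign tumour confirmed by histopathology.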
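Wherever Hepatotoxicity (choleostasis) is given: human cholestatic liver injury, shown by histopathology or by peak ALT or AST elevation over alkaline phosphatase ratio below 2, value counts indexed literature reports.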
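Wherever Hepatotoxicity (chronic liver disease) is given: chronic liver injury confirmed by histopathology or persistently raised serum aminotransferase activity beyond 6 months, value given as the count of indexed literature references.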
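Wherever Hepatotoxicity (cirrhosis) is given: value is a count of indexed literature references reporting cirrhosis confirmed by histopathology.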
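Wherever Hepatotoxicity (cytolytic) is given: human cytolytic liver injury, shown by histopathology or by a ratio above 5 of peak ALT or AST elevation to alkaline phosphatase elevation, value counts indexed references.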
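Wherever Hepatotoxicity (granulomatous hepatitis) is given: value is a count of indexed literature references reporting granulomatous liver disease confirmed by histopathology.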
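Wherever Hepatotoxicity (malignant tumour) is given: malignant tumour confirmed by histopathology, value gives the count of indexed literature references reporting it.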
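Wherever Hepatotoxicity (severe hepatitis) is given: human clinical data: severe hepatitis, meaning potentially life-threatening liver failure or clinically observed cases, the value counts how many indexed literature references report it.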
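Wherever Hepatotoxicity (steatosis) is given: steatosis confirmed by histopathology, value is the count of indexed references.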

| Compound | Hepatotoxicity (cirrhosis) [1] | Hepatotoxicity (severe hepatitis) [2] | Hepatotoxicity (acute) [3] | Hepatotoxicity (cytolytic) [4] | Hepatotoxicity (time to onset) [5] | Hepatotoxicity (comment) [6] | Hepatotoxicity (acute) [7] | Hepatotoxicity (chronic liver disease) [8] | Hepatotoxicity (malignant tumour) [9] | Hepatotoxicity (granulomatous hepatitis) [10] | Hepatotoxicity (benign tumour) [11] | Hepatotoxicity (association with vascular disease) [12] | Hepatotoxicity (moderate) [13] | Hepatotoxicity (choleostasis) [14] | Hepatotoxicity (moderate) [15] | Hepatotoxicity (steatosis) [16] | Hepatotoxicity (severe hepatitis) ([2]; Liver) | Hepatotoxicity (cytolytic) ([4]; Liver) | Hepatotoxicity (acute) ([7]; Liver) | Hepatotoxicity (granulomatous hepatitis) ([10]; Liver) | also measured |
| --- | --- | --- | --- | --- | --- | --- | --- | --- | --- | --- | --- | --- | --- | --- | --- | --- | --- | --- | --- | --- | --- |
| CCOc1nc2cccc(C(=O)O)c2n1Cc1ccc(-c2ccccc2-c2nnn[nH]2)cc1 | 0 | 1 | 2 | 3 | 2 weeks - 5.5 months | DUCTOPENIE | 0% | 0 | 0 | 0 | 0 | 0 | 3 | 0 | 2.4% | 1 | – | – | – | – | – |
| CC(=O)[C@@]1(O)CC[C@H]2[C@@H]3C[C@H](C)C4=CC(=O)CC[C@]4(C)[C@H]3CC[C@@]21C | 0 | – | 3 | – | 1 month - 1.7 years | LITHIASE | – | 0 | 0 | – | 0 | 0 | 5 | – | – | 0 | 1 | 1 | 3.3% | 0 | Hepatotoxicity (choleostasis) ([14]; Liver): 1; Hepatotoxicity (moderate) ([15]; Liver): 4.9% |
| CCO.CN1CCC[C@H]1c1cccnc1 | 0 | – | 3 | – | 8 months - 10 years | CHOLANGITE | – | 1 | 0 | – | 0 | 0 | 2 | – | – | 0 | 0 | 1 | 0% | 0 | Hepatotoxicity (choleostasis) ([14]; Liver): 2; Hepatotoxicity (moderate) ([15]; Liver): 4% |
| Cc1c(O)cccc1C(=O)N[C@@H](CSc1ccccc1)[C@H](O)CN1C[C@H]2CCCC[C@H]2C[C@H]1C(=O)NC(C)(C)C | 0 | 0 | 3 | 3 | 47 days - 17 months | REACTIVATION_HVB | 7.4% | 0 | 0 | 0 | 0 | 0 | 4 | 0 | 27% | 0 | – | – | – | – | – |
| C[C@]12C=CC(=O)C=C1CC[C@@H]1[C@@H]2CC[C@@]2(C)[C@H]1CC[C@]2(C)O (stereo in doubt; form 1) [METHANDROSTENOLONE] | 0 | 0 | 3 | 0 | 1 year - 2 years | ANGIOSARCOME | 0% | 0 | 2 | 0 | 1 | 0 | 0 | 0 | 0% | 0 | – | – | – | – | – |
| CC(=O)c1ccc2c(c1)N(CCCN(C)C)c1ccccc1S2 [ACEPROMAZINE] | 0 | 0 | 1 | 0 | 3 months | CHOLESTASE_PROLONGEE | 0% | 0 | 0 | 0 | 0 | 0 | 0 | 1 | 0% | 0 | – | – | – | – | – |
| CC(=O)c1ccc2c(c1)N(CC(C)N(C)C)c1ccccc1S2 (stereo not drawn) [ACEPROMETAZINE] | 0 | 0 | 1 | 0 | 3 months | CHOLESTASE_PROLONGEE | 0% | 0 | 0 | 0 | 0 | 0 | 0 | 1 | 0% | 0 | – | – | – | – | – |
| NCCCC(O)(P(=O)(O)O)P(=O)(O)O [ALENDRONIC ACID] | 0 | – | 3 | – | 2 months - 6 months | AC_ANTI-ML | – | 0 | 0 | – | 0 | 0 | 2 | – | – | 0 | 1 | 3 | 0% | 0 | Hepatotoxicity (choleostasis) ([14]; Liver): 0; Hepatotoxicity (moderate) ([15]; Liver): 1.6% |
| CC(C)[C@@H]1NC(=O)[C@H](CCCCN)NC(=O)[C@@H](Cc2c[nH]c3ccccc23)NC(=O)[C@H](Cc2ccc(O)cc2)NC(=O)[C@@H](NC(=O)[C@H](N)Cc2ccccc2)CSSC[C@@H](C(=O)N[C@@H](Cc2c[nH]c3ccccc23)C(N)=O)NC1=O [VAPREOTIDE] (H-[dF]CY[dW]KVCW-NH2; disulfide 2-7) | 0 | 0 | 0 | 0 | – | LITHIASE | 0% | 0 | 0 | 0 | 0 | 0 | 1 | 0 | 4.8% | 0 | – | – | – | – | – |
| ANTIMONY (III) ION | 0 | 0 | 1 | 1 | – | HEPATONEPHRITE | 0% | 0 | 0 | 0 | 0 | 0 | 0 | 0 | 0% | 0 | – | – | – | – | – |
